Here are results for five compounds from patent US20220380306A1, “ASTAXANTHIN ESTERS AND METHODS OF USE THEREOF” (CARDAX,INC., priority 2019, published 2022).

A short description of data set [1]: Hydrolysis of ADMG compared to ADSa in solution or under basic conditions (NaHCO3 / Na2CO3). In kind it is physicochemical. Particulars: 16 hours. As for the experimental part: The mixture was stirred at room temperature or 50° C. The reaction was monitored by HPLC and LCMS after 16 hours. […] “Byproduct” indicates a material that was formed other than the diester, monoester, or free astaxanthin.

The nature of data set [2]: Hydrolysis of ADMG compared to ADSa under basic conditions with KOH. In kind it is physicochemical. The following applies: KOH 55.6 molar equivalents, room temperature. The method, then: KOH was added at 55.6 molar equivalents as a solution in 81:9:10 methanol:dichloromethane:water at room temperature. The solution was analyzed using HPLC over various time points for starting diester (A), hydrolyzed monoester (B) and free astaxanthin (C). Byproduct indicates an impurity formed that is none of A, B, or C.

For data set [3] the following is noted: methotrexate 15-20 mg/week vs. placebo; cited from earlier work.
For data set [4] the following is noted: 20 mg/D rosuvastatin vs. placebo; patients who achieved a reduction in CRP<2.0; cited from earlier work.
The target in data set [5] is IL-1β (Homo sapiens, UniProt P01584). Particulars: cited from earlier work.
[6] abbreviates: methanol + saturated aq Na2CO3, rt.
Where [7] appears, read: methanol + saturated aq NaHCO3, 50° C.
Where [8] appears, read: methanol + saturated aq NaHCO3, rt.
Where [9] appears, read: subjects with a reduction of CRP<2.0 mg/L (regardless of dose).

For `CC1=C(/C=C/C(C)=C/C=C/C(C)=C/C=C/C=C(C)/C=C/C=C(C)/C=C/C2=C(C)C(=O)[C@@H](OC(=O)CN(C)C)CC2(C)C)C(C)(C)C[C@H](OC(=O)CN(C)C)C1=O` [ADMG, Astaxanthin Dimethyl Glycinate Diester], the “C (free astaxanthin)” value in data set [1] (methanol + saturated aq Na2CO3, 50° C.) amounted to 92% C; in data set [1] (setting [6]) it was 90% C; in data set [1] (setting [7]) it was 23% C; in data set [1] (setting [8]), 2% C; in data set [2] (time 0 hr), 0%; in data set [2] (time 0.07 hr) it was 0.1%. The “C (free astaxanthin)” value is 13.2% in data set [2] (time 0.65 hr); 34.6% in data set [2] (time 1.23 hr); 53.0% in data set [2] (time 1.80 hr); 66.6% in data set [2] (time 2.38 hr); 75.4% in data set [2] (time 2.97 hr); 80.7% in data set [2] (time 3.55 hr). For the same compound, the “B (hydrolyzed monoester)” value stood at 5% B in data set [1] (setting [6]); 50% B in data set [1] (setting [7]); 28% B in data set [1] (setting [8]); 0.1% in data set [2] (time 0 hr); 7.3% in data set [2] (time 0.07 hr); 44.9% in data set [2] (time 0.65 hr). For the same compound, the “B (hydrolyzed monoester)” value in data set [2] (time 1.23 hr) was determined as 44.6%; in data set [2] (time 1.80 hr), 34.2%; in data set [2] (time 2.38 hr), 23.4%; in data set [2] (time 2.97 hr), 14.9%; in data set [2] (time 3.55 hr), 9.2%. Further, the “A (starting diester)” value in data set [1] (setting [7]) worked out at 33% A; in data set [1] (setting [8]) it was 64% A; in data set [1] (methanol, no base, rt) it was 75% A; in data set [2] (time 0 hr) it was 93.7%; in data set [2] (time 0.07 hr), 86.4%; in data set [2] (time 0.65 hr), 36.1%. The “A (starting diester)” value in data set [2] (time 1.23 hr) is reported as 14.4%; in data set [2] (time 1.80 hr), 5.5%; in data set [2] (time 2.38 hr), 2.0%; in data set [2] (time 2.97 hr) it was 0.7%; in data set [2] (time 3.55 hr) it was 0.2%. For the same compound, the Byproduct in data set [1] (methanol, no base, rt) amounted to 21% byproduct; in data set [2] (time 0 hr), 0%; in data set [2] (time 0.07 hr), 0%; in data set [2] (time 0.65 hr), 0.1%; in data set [2] (time 1.23 hr), 0.8%; in data set [2] (time 1.80 hr), 1.4%. For the same compound, the Byproduct in data set [2] (time 2.38 hr) amounted to 2.0%; in data set [2] (time 2.97 hr), 2.7%; in data set [2] (time 3.55 hr) it was 3.4%.

Turning to `CN(Cc1cnc2nc(N)nc(N)c2n1)c1ccc(C(=O)N[C@@H](CCC(=O)O)C(=O)O)cc1` [methotrexate], in data set [3], the “cardiovascular events compared to placebo” value is “did not result in fewer cardiovascular events” and the “levels of IL-1β, IL-6, or CRP” value is reported as “did not reduce”.

Turning to `CC(C)c1nc(N(C)S(C)(=O)=O)nc(-c2ccc(F)cc2)c1/C=C/[C@@H](O)C[C@@H](O)CC(=O)O` [rosuvastatin], the “reduction in vascular events” value in data set [4] is given as 62%.

With “Astaxanthin Sarcosine Diester [ADSa, reference compound]”, the “A (starting diester)” value in data set [1] (methanol, no base, rt) is given as 72% A; in data set [2] (time 0 hr), 91.4%; in data set [2] (time 0.05 hr) it was 24.0%; in data set [2] (time 0.62 hr) it was 0%. The Byproduct in data set [1] (methanol, no base, rt) stood at 16% byproduct; in data set [2] (time 0 hr), 0%; in data set [2] (time 0.05 hr) it was 1.3%; in data set [2] (time 0.62 hr) it was 3.8%. For the same compound, the results for the “B (hydrolyzed monoester)” value in data set [2] (time 0 hr), in data set [2] (time 0.05 hr) and in data set [2] (time 0.62 hr) were 0.5%, 46.8% and 0.5%, respectively. The “C (free astaxanthin)” value in data set [2] (time 0 hr) is given as 0%; in data set [2] (time 0.05 hr), 22.2%; in data set [2] (time 0.62 hr), 90.8%.

Take “canakinumab: monoclonal antibody that targets IL-1β”: in data set [5] (active treatment groups vs. placebo), the “deaths from infection (mostly tuberculosis)” value was “more deaths from infection”. Besides, in data set [5] (patients with active treatment), the “CRP and IL-6 levels” value is on record as “reduction”; the lipids entry is recorded as “no change”. Also, in data set [5] (setting [9]), the “reduction in cardiovascular death and all-cause mortality” value was 31%; the “reduction in the primary end point (composite of myocardial infarction, stroke, or cardiovascular death)” value was 25%.
